The results in this text go back to patent US12109272B2, “Intermittent dosing of glucocorticoid receptor modulators for the treatment of ovarian and other cancers” (Corcept Therapeutics Incorporated, priority 2021, dated 2024).

Common to all, as to assay type: in vivo, human
For one data set, the system named is GR-inducible genes. The data set is described as follows: Separate healthy volunteer study: genes induced in whole blood by prednisone. The settings on record: single dose, healthy volunteers.
Data set [1] in a line: Phase 2 study: safety and tolerability (adverse events). Conditions: relacorilant (intermittent or continuous) + nab-paclitaxel compared to nab-paclitaxel monotherapy; data as of Mar. 22, 2021. The procedure: Independent comparisons for the intermittent versus (vs.) comparator study arms and the continuous vs. comparator arms were performed. The primary endpoint of the study was progression-free survival as determined by the Response Evaluation Criteria in Solid Tumors (“RECIST”) version 1.1 guidelines (available via the World Wide Web at the following URL: ctep.cancer.gov/protocolDevelopment/docs/recist_guideline.pdf). Secondary endpoints included objective response rate, duration of response, overall survival, and safety of the combined administration of nab-paclitaxel and relacorilant. All efficacy objectives and corresponding endpoints listed below, assessment for response and disease progression were assessed according to RECIST v1.1.
Relacorilant treatment was safe, for both the intermittent and continuous groups, and was well tolerated by the patients. […] Safety and tolerability of the three treatment regimens is illustrated in FIG. 8 (data as of Mar. 22, 2021). There were fewer serious (grade ≥3) peripheral neuropathies in the intermittent group than the comparator group. […]

The nature of data set [2]: Phase 2 study: exposures (AUC, Cmax) of relacorilant and nab-paclitaxel. The settings on record: patients. As for the experimental part:
The exposures and peak concentrations of both nab-paclitaxel and of relacorilant were measured.

Take `C[C@]12C=CC(=O)C=C1CC[C@@H]1[C@@H]2C(=O)C[C@@]2(C)[C@H]1CC[C@]2(O)C(=O)CO` [prednisone]: the “number of genes induced” value in the data set on GR-inducible genes is reported as 239.
For the compound `Cn1cc(S(=O)(=O)N2CCC3=Cc4c(cnn4-c4ccc(F)cc4)C[C@]3(C(=O)c3cc(C(F)(F)F)ccn3)C2)cn1` [relacorilant, (R)-(1-(4-fluorophenyl)-6-((1-methyl-1H-pyrazol-4-yl)sulfonyl)-4,4a,5,6,7,8-hexahydro-1H-pyrazolo[3,4-g]isoquinolin-4a-yl)(4-(trifluoromethyl)pyridin-2-yl)methanone], the safety and tolerability entry in data set [1] is “safe”. In addition, the “exposures (AUC and Cmax) versus safety endpoints, presence or absence of the adverse events” value in data set [2] was “largely overlapping exposures”. The variability of exposures entry in data set [2] (all groups, AUC and Cmax) is recorded as “large variability”.
